# According to ChEMBL document CHEMBL2057208, “Benzoylbenzimidazole-based selective inhibitors targeting Cryptosporidium parvum and Toxoplasma gondii calcium-dependent protein kinase-1” (Bioorg Med Chem Lett, 2012):
# The source made the active and inactive calls. The rule behind the calls is not given here.
# What was measured:
# [1] = cells; settings: Homo sapiens, CRL8155
# Description: Cytotoxicity against human CRL8155 cells after 48 to 72 hrs by Alamar blue assay
# [2] = system: Cryptosporidium parvum; assay: Antiparasitic activity against Cryptosporidium parvum up to 1 uM; format: functional, organism-based
# [3] = Inhibition of Cryptosporidium parvum CDPK1
# [4] = molecular target: T1, Calmodulin-domain protein kinase 1 (Toxoplasma gondii, UniProt Q9BJF5); assay: Inhibition of Toxoplasma gondii CDPK1
# T1 sequence (Q9BJF5 whole entry): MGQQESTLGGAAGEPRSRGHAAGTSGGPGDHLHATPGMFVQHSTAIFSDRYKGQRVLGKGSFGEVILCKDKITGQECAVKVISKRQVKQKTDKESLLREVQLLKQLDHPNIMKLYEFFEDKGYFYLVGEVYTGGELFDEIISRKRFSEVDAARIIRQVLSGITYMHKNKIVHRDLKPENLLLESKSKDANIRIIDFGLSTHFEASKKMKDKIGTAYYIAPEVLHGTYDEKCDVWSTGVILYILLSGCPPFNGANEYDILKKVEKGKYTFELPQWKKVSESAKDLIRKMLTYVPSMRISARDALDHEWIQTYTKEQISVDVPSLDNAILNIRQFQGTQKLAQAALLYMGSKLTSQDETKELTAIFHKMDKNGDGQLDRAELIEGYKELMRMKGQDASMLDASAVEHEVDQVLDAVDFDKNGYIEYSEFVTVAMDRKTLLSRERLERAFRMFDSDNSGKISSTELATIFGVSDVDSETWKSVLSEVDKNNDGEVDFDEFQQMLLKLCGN
# [5] = system: HL-60; assay: cells; settings: Homo sapiens
# Description: Cytotoxicity against human HL60 cells after 48 to 72 hrs by Alamar blue assay
# [6] = molecular target: Tyrosine-protein kinase ABL1 (Homo sapiens, UniProt P00519); assay: Inhibition of human ABL
# [7] = molecular target: Proto-oncogene tyrosine-protein kinase Src (Homo sapiens, UniProt P12931); assay: Inhibition of human SRC
# [8] = system: Toxoplasma gondii; assay: Antiparasitic activity against Toxoplasma gondii up to 1 uM; format: functional, organism-based
# Proto-oncogene tyrosine-protein kinase Src, sequence (P12931 2-536 limits assumed): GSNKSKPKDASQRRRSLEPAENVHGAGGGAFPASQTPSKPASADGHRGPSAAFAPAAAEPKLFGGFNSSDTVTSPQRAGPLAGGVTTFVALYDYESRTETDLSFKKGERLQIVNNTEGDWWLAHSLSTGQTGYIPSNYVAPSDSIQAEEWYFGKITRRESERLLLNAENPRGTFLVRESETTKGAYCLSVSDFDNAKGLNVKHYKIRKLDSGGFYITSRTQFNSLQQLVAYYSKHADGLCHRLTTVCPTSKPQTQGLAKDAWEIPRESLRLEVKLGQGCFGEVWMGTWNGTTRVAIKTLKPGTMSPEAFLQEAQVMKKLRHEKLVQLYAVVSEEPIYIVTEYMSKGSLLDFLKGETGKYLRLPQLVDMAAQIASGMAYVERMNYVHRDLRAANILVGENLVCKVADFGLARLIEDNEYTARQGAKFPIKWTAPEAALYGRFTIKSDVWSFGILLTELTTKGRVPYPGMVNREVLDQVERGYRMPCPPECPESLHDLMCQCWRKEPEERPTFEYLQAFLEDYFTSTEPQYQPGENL
# Tyrosine-protein kinase ABL1, sequence (P00519 whole entry): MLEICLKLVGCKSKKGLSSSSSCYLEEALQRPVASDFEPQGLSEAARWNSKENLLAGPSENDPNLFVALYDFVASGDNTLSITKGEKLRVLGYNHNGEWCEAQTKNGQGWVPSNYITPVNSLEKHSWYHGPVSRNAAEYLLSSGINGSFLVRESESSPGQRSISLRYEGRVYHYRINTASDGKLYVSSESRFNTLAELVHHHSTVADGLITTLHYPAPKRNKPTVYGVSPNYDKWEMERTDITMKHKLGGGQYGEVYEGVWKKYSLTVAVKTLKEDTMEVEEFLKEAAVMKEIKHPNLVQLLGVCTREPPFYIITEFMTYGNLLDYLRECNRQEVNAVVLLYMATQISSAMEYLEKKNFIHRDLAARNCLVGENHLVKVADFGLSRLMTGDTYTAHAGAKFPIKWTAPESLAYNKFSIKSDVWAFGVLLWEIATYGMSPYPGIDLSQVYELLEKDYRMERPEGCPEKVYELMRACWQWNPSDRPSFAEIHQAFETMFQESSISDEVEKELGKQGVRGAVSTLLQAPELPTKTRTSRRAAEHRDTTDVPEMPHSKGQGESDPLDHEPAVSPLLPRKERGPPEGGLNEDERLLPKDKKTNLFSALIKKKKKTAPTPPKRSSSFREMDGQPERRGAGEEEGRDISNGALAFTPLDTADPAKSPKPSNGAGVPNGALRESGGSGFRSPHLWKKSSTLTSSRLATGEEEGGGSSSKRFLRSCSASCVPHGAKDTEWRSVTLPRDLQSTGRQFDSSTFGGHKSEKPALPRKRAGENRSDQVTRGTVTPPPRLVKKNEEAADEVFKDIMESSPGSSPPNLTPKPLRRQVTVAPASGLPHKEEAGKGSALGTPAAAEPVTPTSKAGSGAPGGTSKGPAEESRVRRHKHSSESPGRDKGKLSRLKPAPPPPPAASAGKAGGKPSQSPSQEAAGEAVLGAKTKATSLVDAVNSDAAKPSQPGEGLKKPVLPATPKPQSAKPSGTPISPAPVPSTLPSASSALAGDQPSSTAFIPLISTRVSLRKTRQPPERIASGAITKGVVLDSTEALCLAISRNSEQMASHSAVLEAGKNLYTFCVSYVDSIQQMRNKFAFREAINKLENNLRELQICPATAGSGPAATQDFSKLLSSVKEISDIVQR
structure (smiles),measurement,setting,value
Nc1nc2ccc(C(=O)c3ccccc3)cc2n1CC[C@@H]1CCCN1,EC50,[1],> 30 µM
same,Activity,[2],inactive
same,IC50,[3],0.03 µM
same,IC50,[4],0.029 µM
same,EC50,[5],> 30 µM
same,IC50,[6],> 10 µM
same,IC50,[7],> 10 µM
same,Activity,[8],inactive
